Tested on: HCV 1b RLuc cells (dicistronic genotype 1b Con1 replicon)
Assay: Renilla luciferase (RLuc)-based HCV replicon reporter assay
Type: cell-based, HCV genotype 1b
Details: Hepatitis C virus, 72 h, HCV 1b RLuc replicon, 72 hours; read-out: Activity (antiviral potency [EC50])
Procedure: Antiviral potency (EC50) was determined using a Renilla luciferase (RLuc)-based HCV replicon reporter assay. To perform the assay, HCV 1b RLuc cells (harboring a dicistronic genotype 1b Con1 replicon that encodes a RLuc reporter), or HCV 1a RLuc cells (harboring a dicistronic genotype 1a H77 replicon that encodes a RLuc reporter), were dispensed into 384-well plates. Compounds were re-suspended in DMSO at a concentration of 10 mM and serially diluted in DMSO using an automated pipeting instrument. Serially diluted compounds were mixed with cell culture media and added to the seeded cells. DMSO was used as a negative (solvent) control, and the protease inhibitor ITMN-191 was included at a concentration >100×EC50 as a positive control. 72 hours later, cells were lysed and Renilla luciferase activity quantified as recommended by the manufacturer (Promega-Madison, Wis.). Non-linear regression was performed to calculate EC50 values.
Biological data (antiviral potency [EC50] was determined using a Renilla luciferase (RLuc)-based HCV replicon reporter assay—HCV 1b RLuc) for representative compounds of the invention is provided in the following table. These compounds can be prepared using procedures similar to those described above.

SMILES | EC50 [nM]
COC(=O)N[C@H](C(=O)N1CCC[C@H]1c1ncc(-c2ccc(-c3ccc(-c4cnc([C@@H]5CN(S(C)(=O)=O)CN5C(=O)[C@@H](NC(=O)OC)C(C)C)[nH]4)cc3)cc2)[nH]1)C(C)C | 0.0383
COC(=O)N[C@H](C(=O)N1CCC[C@H]1C(=O)Nc1cccc(-c2ccc(-c3cnc([C@@H]4CCCN4C(=O)[C@@H](NC(=O)OC)C(C)C)[nH]3)cc2)c1)C(C)C | 0.118
COC(=O)N[C@H](C(=O)N1CCC[C@H]1c1ncc(-c2ccc(-c3ccc4nc([C@@H]5CCCN5C(=O)[C@@H](NC(=O)OC)C(C)C)[nH]c4c3)cc2)[nH]1)C(C)C | 0.0372
COC(=O)N[C@H](C(=O)N1CCC[C@H]1C(=O)Nc1ccc(-c2ccc(-c3cnc([C@@H]4CCCN4C(=O)[C@@H](NC(=O)OC)C(C)C)[nH]3)cc2)cc1)C(C)C | 0.124
COC(=O)N[C@H](C(=O)N1CCC[C@H]1c1ncc(-c2ccc3c(c2)sc2cc(-c4ccc5nc([C@@H]6[C@H]7CC[C@H](C7)N6C(=O)[C@@H](NC(=O)OC)C(C)C)[nH]c5c4)ccc23)[nH]1)C(C)C | 0.0037
COC(=O)N[C@@H](C)C(=O)N1CCC[C@H]1c1ncc(-c2ccc3cc(-c4ccc5cc(-c6cnc([C@@H]7[C@H]8CC[C@H](C8)N7C(=O)[C@H](C)NC(=O)OC)[nH]6)ccc5c4)ccc3c2)[nH]1 | 2.61
COC(=O)N[C@H](C(=O)N1CCC[C@H]1c1ncc(-c2ccc3cc(C#Cc4ccc5nc([C@@H]6[C@H]7CC[C@H](C7)N6C(=O)[C@@H](NC(=O)OC)C(C)C)[nH]c5c4)ccc3c2)[nH]1)C(C)C | 0.0195
COC(=O)N[C@H](C(=O)N1CCC[C@H]1c1ncc(-c2ccc3cc(-c4ccc(-c5cnc([C@@H]6C[C@H](C#N)CN6C(=O)[C@@H](NC(=O)OC)C(C)C)[nH]5)cc4)ccc3c2)[nH]1)C(C)C | 0.0067
COC(=O)N[C@H](C(=O)N1CCC[C@H]1c1ncc(-c2ccc(-c3ccc4cc(-c5ccc6nc([C@@H]7[C@H]8CC[C@H](C8)N7C(=O)[C@@H](NC(=O)OC)C(C)C)[nH]c6c5)ccc4c3)cc2)[nH]1)C(C)C | 0.0898
COC(=O)N[C@H](C(=O)N1CCC[C@H]1c1ncc(-c2ccc3c(c2)C(F)(F)c2cc(-c4ccc5nc([C@@H]6[C@H]7CC[C@H](C7)N6C(=O)[C@@H](NC(=O)OC)C(C)C)[nH]c5c4)ccc2-3)[nH]1)C(C)C | 0.0029
COC(=O)N[C@@H](C)C(=O)N1[C@@H]2CC[C@@H](C2)[C@H]1c1ncc(-c2ccc3cc(-c4ccc(-c5cnc([C@@H]6CCCN6C(=O)[C@@H](NC(=O)OC)C(C)C)[nH]5)cc4)ccc3c2)[nH]1 | 0.016
COC(=O)N[C@H](C(=O)N1CCC[C@H]1c1ncc(-c2ccc3c(c2)CCc2cc(-c4ccc5nc([C@@H]6[C@H]7CC[C@H](C7)N6C(=O)[C@@H](NC(=O)OC)C(C)C)[nH]c5c4)ccc2-3)[nH]1)C(C)C | 0.0054
COC(=O)N[C@@H](C)C(=O)N1CCC[C@H]1c1ncc(-c2ccc3c(c2)CCc2cc(-c4cnc([C@@H]5[C@H]6CC[C@H](C6)N5C(=O)[C@H](C)NC(=O)OC)[nH]4)ccc2-3)[nH]1 | 0.0368
COC(=O)N[C@@H](C)C(=O)N1[C@@H]2CC[C@@H](C2)[C@H]1c1ncc(-c2ccc3c(c2)CCc2cc(-c4cnc([C@@H]5CCCN5C(=O)[C@@H](NC(=O)OC)C(C)C)[nH]4)ccc2-3)[nH]1 | 0.0126
COC(=O)N[C@H](C(=O)N1CCC[C@H]1c1ncc(-c2ccc3cc(-c4ccc5cc(-c6cnc([C@@H]7[C@H]8CC[C@H](C8)N7C(=O)[C@@H](NC(=O)OC)C(C)C)[nH]6)ccc5c4)ccc3c2)[nH]1)C(C)C | 0.28
COC(=O)N[C@@H](C)C(=O)N1[C@@H]2CC[C@@H](C2)[C@H]1c1ncc(-c2ccc3cc(-c4ccc5cc(-c6cnc([C@@H]7CCCN7C(=O)[C@@H](NC(=O)OC)C(C)C)[nH]6)ccc5c4)ccc3c2)[nH]1 | 1.17
COC(=O)N[C@@H](C)C(=O)N1CCC[C@H]1c1ncc(-c2ccc3c(c2)sc2cc(-c4cnc([C@@H]5[C@H]6CC[C@H](C6)N5C(=O)[C@H](C)NC(=O)OC)[nH]4)ccc23)[nH]1 | 0.0185
COC(=O)N[C@@H](C)C(=O)N1CCC[C@H]1c1ncc(-c2ccc3cc(-c4ccc5cc(-c6cnc([C@@H]7[C@H]8CC[C@H](C8)N7C(=O)[C@@H](NC(=O)OC)C(C)C)[nH]6)ccc5c4)ccc3c2)[nH]1 | 1.15
COC(=O)N[C@@H](CC#N)C(=O)N1[C@@H]2CC[C@@H](C2)[C@H]1c1ncc(-c2ccc3cc(-c4ccc(-c5cnc([C@@H]6CCCN6C(=O)[C@@H](NC(=O)OC)C(C)C)[nH]5)cc4)ccc3c2)[nH]1 | 0.013

SMILES | EC50 [nM]
COC(=O)N[C@H](C(=O)N1CCC[C@H]1c1ncc(-c2ccc(-c3ccc4cc(-c5cnc([C@@H]6[C@H]7CC[C@H](C7)N6C(=O)[C@@H](NC(=O)OC)C(C)C)[nH]5)ccc4c3)cc2)[nH]1)C(C)C | 0.011
COC(=O)N[C@@H](C)C(=O)N1CCC[C@H]1c1ncc(-c2ccc(-c3ccc4cc(-c5cnc([C@@H]6[C@H]7CC[C@H](C7)N6C(=O)[C@@H](NC(=O)OC)C(C)C)[nH]5)ccc4c3)cc2)[nH]1 | 0.034
COC(=O)N[C@H](C(=O)N1CCC[C@H]1c1ncc(-c2ccc(C#Cc3ccc(-c4cnc([C@@H]5[C@H]6CC[C@H](C6)N5C(=O)[C@@H](NC(=O)OC)C(C)C)[nH]4)cc3)cc2)[nH]1)C(C)C | 0.073
COC(=O)N[C@H](C(=O)N1CCC[C@H]1c1ncc(-c2ccc3cc(-c4ccc(-c5cnc([C@@H]6[C@H]7CC[C@H](C7)N6C(=O)[C@@H](NC(=O)OC)C(C)C)[nH]5)cc4)ccc3c2)[nH]1)C(C)C | 0.006
COC(=O)N[C@H](C(=O)N1CCC[C@H]1c1ncc(-c2ccc3cc(-c4ccc(-c5ccc6nc([C@@H]7[C@H]8CC[C@H](C8)N7C(=O)[C@@H](NC(=O)OC)C(C)C)[nH]c6c5)cc4)ccc3c2)[nH]1)C(C)C | 0.077
COC(=O)N[C@@H](C)C(=O)N1CCC[C@H]1c1ncc(-c2ccc3c(c2)sc2cc(-c4ccc5nc([C@@H]6[C@H]7CC[C@H](C7)N6C(=O)[C@H](C)NC(=O)OC)[nH]c5c4)ccc23)[nH]1 | 0.075
CCC(=O)N[C@H](C(=O)N1CC2(CC2)C[C@H]1c1ncc(-c2ccc(-c3ccc(-c4cnc([C@@H]5CCCN5C(=O)[C@@H](NC(=O)OC)C(C)C)[nH]4)cc3)cc2)[nH]1)C(C)C | 0.013
COC(=O)N[C@H](C(=O)N1C[C@@H](C#N)C[C@H]1c1ncc(-c2ccc(C#Cc3ccc(-c4cnc([C@@H]5CC(F)(F)CN5C(=O)[C@@H](NC(=O)OC)C(C)C)[nH]4)cc3)cc2)[nH]1)C(C)C | 0.018
COC(=O)N[C@H](C(=O)N1CCC[C@H]1c1nc2ccc(-c3cc4cc5sc(-c6ccc7nc([C@@H]8CCCN8C(=O)[C@@H](NC(=O)OC)C(C)C)[nH]c7c6)cc5cc4s3)cc2[nH]1)C(C)C | 0.014
COC(=O)N[C@H](C(=O)N1C[C@@H](C#N)C[C@H]1c1ncc(-c2ccc(C#Cc3ccc(-c4cnc([C@@H]5CC6(CC6)CN5C(=O)[C@@H](NC(=O)OC)C(C)C)[nH]4)cc3)cc2)[nH]1)C(C)C | 0.0149
COC(=O)N[C@H](C(=O)N1CC2(CC2)C[C@H]1c1ncc(-c2ccc(-c3ccc(-c4ccc5nc([C@@H]6[C@H]7CC[C@H](C7)N6C(=O)[C@@H](NC(=O)OC)C(C)C)[nH]c5c4)cc3)cc2)[nH]1)C(C)C | 0.0058
COC(=O)N[C@H](C(=O)N1C[C@@H](C#N)C[C@H]1c1ncc(-c2ccc(-c3ccc4cc(-c5cnc([C@@H]6CC7(CC7)CN6C(=O)[C@@H](NC(=O)OC)C(C)C)[nH]5)ccc4c3)cc2)[nH]1)C(C)C | 0.0069
COC(=O)N[C@H](C(=O)N1C[C@@H](C#N)C[C@H]1c1ncc(-c2ccc3c(c2)C(F)(F)c2cc(-c4ccc5nc([C@@H]6[C@H]7CC[C@H](C7)N6C(=O)[C@@H](NC(=O)OC)C(C)C)[nH]c5c4)ccc2-3)[nH]1)C(C)C | 0.0059
COC(=O)N[C@@H](C)C(=O)N1[C@@H]2CC[C@@H](C2)[C@H]1c1nc2ccc(-c3ccc4c(c3)C(F)(F)c3cc(-c5cnc([C@@H]6CC7(CC7)CN6C(=O)[C@@H](NC(=O)OC)C(C)C)[nH]5)ccc3-4)cc2[nH]1 | 0.0036
COC(=O)N[C@H](C(=O)N1CC2(CC2)C[C@H]1c1ncc(-c2ccc3c(c2)C(F)(F)c2cc(-c4ccc5nc([C@@H]6[C@H]7CC[C@H](C7)N6C(=O)[C@@H](NC(=O)OC)C(C)C)[nH]c5c4)ccc2-3)[nH]1)C(C)C | 0.0045
COC(=O)N[C@H](C(=O)N1CC2(CC2)C[C@H]1c1ncc(-c2ccc3cc(-c4ccc(-c5cnc([C@@H]6[C@H]7CC[C@H](C7)N6C(=O)[C@@H](NC(=O)OC)C(C)C)[nH]5)cc4)ccc3c2)[nH]1)C(C)C | 0.0067
COC(=O)N[C@@H](CCS(C)(=O)=O)C(=O)N1[C@@H]2CC[C@@H](C2)[C@H]1c1nc2ccc(-c3ccc4c(c3)C(F)(F)c3cc(-c5cnc([C@@H]6CC7(CC7)CN6C(=O)[C@@H](NC(=O)OC)C(C)C)[nH]5)ccc3-4)cc2[nH]1 | 0.0218
COC(=O)N[C@H](C(=O)N1C[C@@H](C#N)C[C@H]1c1ncc(-c2ccc3c(c2)C(F)(F)c2cc(-c4ccc5nc([C@@H]6CC7(CC7)CN6C(=O)[C@@H](NC(=O)OC)C(C)C)[nH]c5c4)ccc2-3)[nH]1)C(C)C | 0.0064
COC(=O)N[C@@H](CCC#N)C(=O)N1[C@@H]2CC[C@@H](C2)[C@H]1c1nc2ccc(-c3ccc4c(c3)C(F)(F)c3cc(-c5cnc([C@@H]6CC7(CC7)CN6C(=O)[C@@H](NC(=O)OC)C(C)C)[nH]5)ccc3-4)cc2[nH]1 | 0.006

Source: patent US8822430B2 (Gilead Sciences, Inc., priority 2009, dated 2014)
